Patent publication US7618790B2, “Method for NGF assay for in vitro diagnosis of breast cancer and therapeutic use” (Biomerieux, priority 2002, dated 2009)

What was measured:
PC12 cells = experiment: Coculture of NGF-sensitive PC12 cells with MCF-7 breast cancer cells (neurite differentiation); assay type: cell-based
Description: To do this, cells which develop in the presence of NGF, i.e. PC12 cells, were cocultured with MCF-7 breast cancer cells, as described in point 1.1 above, or else with NBEC cells, as described in point 1.1 above, as a control.
The PC12 cells were cultured beforehand at 37° C. in a 5% CO2 atmosphere, in Dulbecco's modified minimum essential medium (DMEM) supplemented with 3 g/l of sodium bicarbonate, 4 mM of L-glutamine, 10% of fetal calf serum, 5% of horse serum and 100 units/ml of penicillin/streptomycin.
The coculturing was carried out with Transwell® tissue culture-treated polycarbonate plates (12 mm in diameter and 12 μm pore size). An initial equilibrating period was observed by adding the media to the central well of the plate, and then to the Transwell® insert, which operation was followed by incubation at 37° C. for 3 h.
The PC12 cells were seeded in 12-well plates coated with collagen for 24 h in order to ensure correct attachment to the culture plates. The MCF-7 or NCBE cells were seeded inside the Transwell® insert, corresponding to the upper compartment, in the complete medium for 24 h. After this time, each cell line was rinsed three times with serum-free medium and was incubated in a withdrawal medium. […] The percentage of cells bearing neurites, defined as cells with one or more neurite extensions twice the length of the cell body, was counted. […]

MCF-7 cells = experiment: Growth of MCF-7 cancer cells (cell count with hemocytometer); assay type: cell-based, human; settings: serum-free basic medium, 24-72 h, FIG. 4A
Description: The effect of the blocking antibody MAB-256 (above) and of the inhibitor K-252a on the growth of MCF-7 cells was studied. To do this, the cells were seeded in a proportion of 2×10^4 cells/ml in 35 mm dishes in complete medium. After having reached 40% confluency, the cells were washed twice and were left without nutrients in a serum-free medium containing fibronectin (2 μg/ml) and transferrin (30 μg/ml) for 3 h. The following hour, the medium was replaced with 2 ml of the same medium containing the inhibitor K-252a or the antibody […] at various concentrations in order to study the effect of the pharmacological inhibitor or of the blocking inhibitor on the base line growth level. After treatment for 24, 36, 48 and 72 h, the number of cells was determined, after trypsinization of the monolayer culture with a solution of 0.25% trypsin/EDTA, using a hemocytometer. An anti-mouse monoclonal antibody ([…], Sigma), i.e. an irrelevant antibody, was also used in order to determine the specificity of the blocking antibody.

| Compound | PC12 cell differentiation (neurite development) (PC12 cells; culture of PC12 cells alone as a control, in the presence of NGF, FIG. 2B photograph 3) | growth of the MCF-7 cells (number of cells) (MCF-7 cells) | PC12 cell differentiation (cells bearing neurites) (PC12 cells; coculture of MCF-7 and PC12 cells, 48 h, FIG. 2B) |
| --- | --- | --- | --- |
| NGF: nerve growth factor added to the medium as positive control for PC12 differentiation | neurite development due to differentiation is observed | – | – |
| COC(=O)[C@@]1(O)C[C@H]2O[C@]1(C)n1c3ccccc3c3c4c(c5c6ccccc6n2c5c31)C(=O)NC4 [K-252a] | – | decreases | strong inhibition of the PC12 cell differentiation |
